Measured values from publication PMC8639922, “KSHV transactivator-derived small peptide traps coactivators to attenuate MYC and inhibits leukemia and lymphoma cell growth” (Communications Biology, 2021).
Square brackets hold non-standard residues; d marks the D form. Peptide text beside a SMILES is read from it. Orn = NCCC[C@H](N)C(=O)O; βAla = NCCC(=O)O

Assays:
[1] = system: MYC expression in BC-1; assay: MYC qRT-PCR; type: cell-based, human; details: BC-1, 24 μM, 24 h
Experimental: (§1) As a next step, we sought to identify the cellular pathways that are impacted by VGN50. For this, RNA-seq analysis was conducted on total RNA isolated from cells harvested after 24 h of incubation with VGN50. Mutant peptide was used as a comparison to identify differentially regulated genes by VGN50 (Fig. 4a). […] Furthermore, we confirmed the result by RT-qPCR that the expression of MYC itself was decreased in both BCBL-1 and BC-1 cells after treatment with VGN50, but not mutant peptide (Fig. 4c).
(§2) Fig. 4 VGN50 target identification with RNA-sequencing. a Total RNA-sequencing. BCBL-1 cells were treated with either VGN50 or mutant peptide for 24 h (24 μM, n = 3). Untreated cells were used as a negative control. RNA-sequencing datasets from VGN50-peptide-treated samples were compared with that from mutant-peptide-treated samples, and differentially regulated genes were depicted as a volcano plot (left panel). b Gene Set Enrichment Analyses (GSEA). […] Peptide-treated samples were used for qRT-PCR analysis in duplicate and confirmed MYC down-regulation. (VGN50, 24 μM, 24 h post treatment) d Direct target identification with SLAM-seq. The experimental scheme is shown in the upper section of the panel. VGN50 or mutant peptide (24 μM final concentration) were added to BC-1 or BCBL-1 cells 30 mins prior to incubation with 4sU, and RNA was labeled for 1 h in the presence of each peptide. The C/T converted RNA-species were compared with mock-treated samples and depicted as scatter plots. Each treatment was performed in duplicate and nascent transcripts with p-values <0.05 are indicated as red dots. e Integrative Genomics Viewer (IGV). Both non-T/C converted and converted sequence reads were visualized with the IGV, and a snapshot of the MYC 3′-UTR region is presented. […] The strategy of gene selection for CSAN is described on the left-hand side of the panel. […] The number of common transcriptional regulators are shown in the Venn diagram and selected transcription and co-regulatory protein names are also included. The complete list of gene names is presented in Supplementary Fig. 3.

[2] = system: MYC expression in BCBL-1; assay: MYC qRT-PCR; type: cell-based, human; details: BCBL-1, 24 μM, 24 h
Experimental: as §1, §2

[3] = system: 5 SWI/SNF components; assay: ELISA-based peptide binding assay, summary for all five proteins; details: biotin-conjugated peptide, same peptide concentrations
Experimental: Fig. 3 Effects of VGN50 on KSHV gene transcription and VGN50 binding with SWI/SNF components. a KSHV qRT-PCR array analysis was used to study effects of VGN50 on KSHV gene transcription in a genome-wide manner. Uninduced (−; no doxycycline added) or dox-induced (+; 1 μg/ml) cells were treated with VGN50 or the mutant peptide (Mut-P) at a concentration of 24 μM. Samples were collected at 24 h post-treatment. Expression in uninduced cells was set as 1 for each viral gene and expression shown as fold activation relative to no-Dox samples. Selected cellular genes were also included in the PCR array for comparison. 18S ribosomal RNA was used as an internal control. b KSHV protein expression. […] Peptide binding measured as OD values at 450 nm are shown. […]
To confirm the basis of the VGN50 action, the biochemical interactions between VGN50 and SWI/SNF proteins (i.e., putative VGN50 target molecules), were examined by ELISA-based binding assays using purified five individual SWI/SNF components prepared from baculovirus-infected Sf9 cells (Fig. 3d). Increasing concentrations of biotin-conjugated VGN50 or Mut-P were incubated in an ELISA plate coated with each SWI/SNF component, and the bound peptides were detected by HRP-streptavidin (Fig. 3e). […]

Q: With `CC(C)C[C@H](NC(=O)CCNC(=O)[C@H](CCCNC(=N)N)NC(=O)[C@H](CCCNC(=N)N)NC(=O)[C@H](CCCNC(=N)N)NC(=O)[C@H](CCCN)NC(=O)[C@H](CCCNC(=N)N)NC(=O)[C@H](CCCNC(=N)N)NC(=O)[C@H](CCCCN)NC(=O)[C@H](CCCCN)NC(=O)[C@H](N)CCCNC(=N)N)C(=O)N[C@@H](CO)C(=O)N[C@@H](CO)C(=O)N[C@@H](C)C(=O)N[C@@H](C)C(=O)N[C@@H](C)C(=O)NCC(=O)N[C@@H](CC(C)C)C(=O)N[C@@H](Cc1ccc(O)cc1)C(=O)N[C@@H](CCC(N)=O)C(=O)N[C@@H](CC(C)C)C(=O)N[C@@H](CC(=O)O)C(=O)N[C@H](C(=O)O)[C@@H](C)O` [Mt-P] (H-[dR]KKRR[Orn]RRR[βAla]LSSAAAGLYQLDT-OH; N-terminus and C-terminus assumed) as the compound, how does the “C-myc 2^-(DCT)” value ([1]; replicate 1) read?
A: 9.403e-5

Q: What about the “C-myc 2^-(DCT)” value ([1]; replicate 2) of the same compound?
A: 9.337e-5

Q: And the “C-myc 2^-(DCT)” value ([2]; replicate 1)?
A: 9.038e-5

Q: What about the “C-myc 2^-(DCT)” value ([2]; replicate 2) of the same compound?
A: 8.988e-5

Q: What about the “Binding to SWI/SNF components compared with VGN50” value [3] of the same compound?
A: did not bind SWI/SNF components as much as VGN50
